In patent US6716833B2, “Acetylenic α-amino acid-based sulfonamide hydroxamic acid tace inhibitors” (priority 1999, dated 2004):
Where a name gives a salt, the structure may show the parent alone. Read-outs that look alike come from different tables or passages of the source.

Tests used:
[1] = target: T1, MMP-1 (Homo sapiens, UniProt P03956); test: MMP-1 inhibition (thiopeptide or fluorescent peptide substrate); format: biochemical; conditions: read-out: MMP-1 IC50
T1 sequence (P03956 100-469): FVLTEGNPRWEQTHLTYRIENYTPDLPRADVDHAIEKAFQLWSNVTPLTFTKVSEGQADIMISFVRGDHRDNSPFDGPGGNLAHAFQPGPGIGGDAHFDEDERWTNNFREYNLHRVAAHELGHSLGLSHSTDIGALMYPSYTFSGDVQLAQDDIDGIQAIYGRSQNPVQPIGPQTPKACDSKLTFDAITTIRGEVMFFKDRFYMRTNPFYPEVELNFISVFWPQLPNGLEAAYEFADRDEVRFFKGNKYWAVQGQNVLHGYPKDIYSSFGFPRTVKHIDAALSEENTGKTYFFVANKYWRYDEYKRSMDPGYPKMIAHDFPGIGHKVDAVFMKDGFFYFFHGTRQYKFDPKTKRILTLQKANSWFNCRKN

[2] = target: MMP-9 (Homo sapiens, UniProt P14780); test: MMP-9 inhibition (thiopeptide or fluorescent peptide substrate); format: biochemical; conditions: read-out: MMP-9 IC50
[3] = target: MMP-13 (Homo sapiens, UniProt P45452); test: MMP-13 inhibition (thiopeptide or fluorescent peptide substrate); format: biochemical; conditions: read-out: MMP-13 IC50
[4] = target: TNF-α converting enzyme (TACE) (Homo sapiens, UniProt P78536); test: TACE inhibition (fluorescent peptidyl substrate); format: biochemical
[5] = tested on: THP-1 cells; test: THP-1 soluble protein assay, soluble TNF-α (ELISA); format: cell-based, human; conditions: for inhibition at 3 µM: Homo sapiens
[6] = THP-1, 3 μM, THP-1 cells, read-out: THP % Inhibition @ 3 μM

Chain of MMP-9 (P14780 94-707): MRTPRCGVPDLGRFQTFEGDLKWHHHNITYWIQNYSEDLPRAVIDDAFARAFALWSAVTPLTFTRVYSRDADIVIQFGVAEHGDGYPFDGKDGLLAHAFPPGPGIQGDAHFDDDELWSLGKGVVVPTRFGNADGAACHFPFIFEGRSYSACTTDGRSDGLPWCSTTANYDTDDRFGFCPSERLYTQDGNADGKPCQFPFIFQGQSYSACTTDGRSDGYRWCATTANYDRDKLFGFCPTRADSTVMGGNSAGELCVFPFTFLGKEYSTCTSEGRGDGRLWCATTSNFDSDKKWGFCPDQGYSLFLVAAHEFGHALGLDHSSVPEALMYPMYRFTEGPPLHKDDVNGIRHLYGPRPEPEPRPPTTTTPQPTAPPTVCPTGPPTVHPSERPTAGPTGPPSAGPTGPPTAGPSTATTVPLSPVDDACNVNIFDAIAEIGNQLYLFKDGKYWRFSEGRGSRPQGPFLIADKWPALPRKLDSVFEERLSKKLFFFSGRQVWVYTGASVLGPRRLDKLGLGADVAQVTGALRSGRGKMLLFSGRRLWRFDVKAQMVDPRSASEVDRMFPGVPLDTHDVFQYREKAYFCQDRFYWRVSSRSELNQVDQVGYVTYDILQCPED
Chain of TNF-α converting enzyme (TACE) (P78536 215-824, species assumed): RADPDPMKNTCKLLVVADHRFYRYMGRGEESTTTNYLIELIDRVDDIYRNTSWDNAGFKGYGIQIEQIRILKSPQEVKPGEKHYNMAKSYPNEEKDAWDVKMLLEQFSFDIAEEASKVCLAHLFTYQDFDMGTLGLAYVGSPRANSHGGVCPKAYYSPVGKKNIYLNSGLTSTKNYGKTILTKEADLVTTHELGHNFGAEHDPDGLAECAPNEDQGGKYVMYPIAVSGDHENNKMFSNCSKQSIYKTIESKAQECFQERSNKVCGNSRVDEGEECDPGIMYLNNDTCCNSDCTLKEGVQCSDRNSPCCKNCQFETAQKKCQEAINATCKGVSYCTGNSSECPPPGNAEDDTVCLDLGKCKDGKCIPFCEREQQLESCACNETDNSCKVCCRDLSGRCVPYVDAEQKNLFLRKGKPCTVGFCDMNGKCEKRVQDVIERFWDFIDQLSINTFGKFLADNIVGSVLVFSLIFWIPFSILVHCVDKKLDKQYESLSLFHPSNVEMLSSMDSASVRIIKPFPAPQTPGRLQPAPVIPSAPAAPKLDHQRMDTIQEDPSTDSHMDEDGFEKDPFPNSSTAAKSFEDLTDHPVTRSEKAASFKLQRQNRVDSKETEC

IC50 [1]	IC50 [2]	IC50 [3]	IC50 ([4]; read-out: TACE IC50)	melting point	Molecule	also measured
17 nM	8.3 nM	7.6 nM	101 nM	110 to 115 °C	CC#CCOc1ccc(S(=O)(=O)N(C)C(C(=O)NO)C(C)(C)SCCN2CCN(C)CC2)cc1 (stereo not shown) [Example 141]	
> 10000 nM		530 nM	37 nM		CC#CCOc1ccc(S(=O)(=O)NC2(C(=O)NO)CCN(C(=O)OC(C)(C)C)CC2)cc1 [Example 287, tert-Butyl 4-({[4-(2-Butynyloxy)phenyl]sulfonyl}amino)-4-[(hydroxyamino)carbonyl]-1-piperidinecarboxylate]	inhibition at 3 µM [5, 6]: 60%
72 nM	10 nM	14 nM	131 nM	55 to 57 °C	CC#CCOc1ccc(S(=O)(=O)N(C)C(C(=O)NO)C(C)(C)SCCN(CC)CC)cc1 (stereo not shown) [Example 142, 2-({[4-(2-Butynyloxy)phenyl]sulfonyl)(methyl)amino]-N-hydroxy-3-methyl-3-{[2-(diethylamino)ethyl]sulfanyl}butanamide]	
13 nM	5.5 nM	2 nM	160 nM	156 to 158 °C	CC#CCOc1ccc(S(=O)(=O)N(C)C(C(=O)NO)C(C)(C)SCc2ccccc2)cc1 (stereo not shown) [Example 153, 2-[(4-but-2-ynyloxy-Benenesulfonyl)-methyl-amino]-N-hydroxy-3-methyl-3-benzylsulfanyl-butyramide]	
> 10000 nM		> 10000 nM	50 nM		CC#CCOc1ccc(S(=O)(=O)NC2(C(=O)NO)CCNCC2)cc1 [Example 288, 4-({[4-(2-Butynyloxy)phenyl]sulfonyl}amino)-N-hydroxy-4-piperidinecarboxamide]	inhibition at 3 µM [5, 6]: 25%
682 nM	3750 nM	1630 nM	574 nM	89 to 92 °C	CC#CCOc1ccc(S(=O)(=O)N(C)C2(C(=O)NO)CCCCC2)cc1 [Example 136, 1-[{[4-(2-Butynyloxy)phenyl]sulfonyl}(methyl)amino]-N-hydroxycyclohexanecarboxamide]	
21 nM	5.3 nM	5.3 nM	157 nM	58 to 62 °C	CC#CCOc1ccc(S(=O)(=O)N(C)C(C(=O)NO)C(C)(C)SCCCN2CCN(C)CC2)cc1 (stereo not shown) [Example 147, 2-({[4-(2-Butynyloxy)phenyl]sulfonyl)(methyl)amino]-N-hydroxy-3 Methyl-3-{[2(4-methyl-1-ethyl-1-piperazinyl)propyl]sulfanyl}butanamide]	
> 1000 nM		169 nM	11 nM		CC#CCOc1ccc(S(=O)(=O)N[C@H](CSCCCO)C(=O)NO)cc1 [Example 172, (2S)-2-({[4-(2-Butynyloxy)phenyl]sulfonyl}amino)-N-hydroxy-3-[(3-hydroxypropyl)sulfanyl]-3-propanamide]	inhibition at 3 µM [5, 6]: 70%
				68 to 72 °C	CC#CCOc1ccc(S(=O)(=O)N2CCOCC2C(=O)NO)cc1 (stereo not shown) [Example 240, 4-([4-(2-Butynyloxy)phenyl]sulfonyl}-N-hydroxy-3-morpholinecarboxamide]	IC50 ([2]; Table 9): 170 nM; IC50 ([3]; Table 9): 26 nM; IC50 ([4]; TACE IC50): 4.5 nM
					CC#CCOc1ccc(S(=O)(=O)N(CC(=O)NO)Cc2cccnc2)cc1 [Example 23, 2-[(4-but-2-ynyloxy-Benzenesulfonyl)-pyridin-3-ylmethyl-amino]-N-hydroxyacetamide Hydrochloride]	inhibition at 3 µM ([5]; THP-1, read-out: THP % Inhibition @ 3 μM): 63%
					CC#CCOc1ccc(S(=O)(=O)N2CCSC3(CCCCC3)C2C(=O)NO)cc1 (stereo not shown) [Example 237]	IC50 ([1]; Table 9): 62 nM; IC50 ([3]; Table 9): 12 nM; IC50 ([4]; Table 9, read-out: TACE IC50): 212 nM; THP % Inhibition @ 3 μM ([5]; Table 9): 90%
					CC#CCOc1ccc(S(=O)(=O)N2CCSC(CC)(CC)C2C(=O)NO)cc1 (stereo not shown) [Example 238]	IC50 ([1]; Table 9): 38 nM; IC50 ([3]; Table 9): 6.8 nM; IC50 ([4]; Table 9, read-out: TACE IC50): 228 nM; THP % Inhibition @ 3 μM ([5]; Table 9): 73%
13 nM	5.3 nM	3.6 nM	132 nM	48 to 52 °C	CC#CCOc1ccc(S(=O)(=O)N(C)C(C(=O)NO)C(C)(C)SCCCN2CCOCC2)cc1 (stereo not shown) [Example 146]	
482 nM	79 nM	48 nM	191 nM	179 to 181 °C	CC#CCOc1ccc(S(=O)(=O)N(Cc2cccnc2)C2(C(=O)NO)CCCCC2)cc1 [Example 137, 1-[{[4-(2-Butynyloxy)phenyl]sulfonyl}(3-pyridinylmethyl)amino]N-hydroxycyclohexanecarboxamide]	
				150 to 154 °C	CC#CCOc1ccc(S(=O)(=O)N2CCSCC2C(=O)NO)cc1 (stereo not shown) [Example 239]	IC50 ([2]; Table 9): 21 nM; IC50 ([3]; Table 9): 12 nM; IC50 ([4]; Table 9, read-out: TACE IC50): 2.9 nM
169 nM	30 nM	15 nM	23 nM	195 to 197 °C	CC#CCOc1ccc(S(=O)(=O)N(C)[C@@H](C(=O)NO)[C@H]2CC[C@H](O)CC2)cc1 [Example 130]	
1150 nM	37 nM	60 nM	64 nM	62 °C (dec.)	CC#CCOc1ccc(S(=O)(=O)N(C)C(C(=O)NO)c2ccc(OCCN(C)C(=O)OC(C)(C)C)cc2)cc1 (stereo not shown) [Example 191, tert-Butyl(2-{4-[1-({[4-(2-Butynyloxy)phenyl]sulfonyl}(methyl)amino)-2-(hydroxyamino)-2-oxoethyl)phenoxy]ethyl)-(methyl)carbamate]	
111 nM	32 nM	3.8 nM	98 nM	74 to 78 °C	CC#CCOc1ccc(S(=O)(=O)N(Cc2cccnc2)C(CSCc2ccccc2)C(=O)NO)cc1 (stereo not shown) [Example 157, 3-(Benzylthio)-2-[[[4-(2-butynyloxy)phenyl]sulfonyl]pyridin-3-ylmethylamino]-N-hydroxypropanamide]	
17 nM	13 nM	4.6 nM	29 nM	132 to 135 °C	CC#CCOc1ccc(S(=O)(=O)N(C)C(C(=O)NO)C(C)(C)SC)cc1 (stereo not shown) [Example 149, 2-[(4-but-2-ynyloxy-Benenesulfonyl)-methyl-amino]-N-hydroxy-3-methyl-3-methylsulfanyl-butyramide]	
569 nM		24 nM	25 nM	65 to 70 °C	CC#CCOc1ccc(S(=O)(=O)N(C)C(C(=O)NO)c2ccc(OCCCNS(C)(=O)=O)cc2)cc1 (stereo not shown) [Example 197, 2-[{[4-(2-Butynyloxy)phenyl]sulfonyl}(methyl)amino]-N-hydroxy-2-(4-{3-[(methylsulfonyl)amino]propoxy}phenyl)acetamide]	
834 nM		11 nM	62 nM	135 °C (dec.)	CC#CCOc1ccc(S(=O)(=O)N(C)C(C(=O)NO)c2ccc(OCCCNC(=O)Nc3ccccc3)cc2)cc1 (stereo not shown) [Example 198, 2-(4-{3-[(Anilinocarbonyl)amino]propoxy}phenyl)-2-[{[4-(2-butynyloxy)phenyl]sulfonyl}(methyl)amino]-N-hydroxyacetamide]	
798 nM		36 nM	62 nM	170 to 172 °C	CC#CCOc1ccc(S(=O)(=O)N(C)C(C(=O)NO)c2ccc(Cl)cc2)cc1 (stereo not shown) [Example 212, 2-[{[4-(2-Butynyloxy)phenyl]sulfonyl}(methyl)amino]-2-(4-chlorophenyl)-N-hydroxyacetamide]	
> 10000 nM		147 nM	33 nM	80 to 86 °C	CC#CCOc1ccc(S(=O)(=O)NC(C(=O)NO)c2ccc(OCCN3CCOCC3)cc2)cc1 (stereo not shown) [Example 206, 2-({[4-(2-Butynyloxy)phenyl]sulfonyl}amino)-N-hydroxy-2-{4-[2-(4-morpholinyl)ethoxy]phenyl}acetamide]	
> 10000 nM	859 nM	126 nM	49 nM	90 to 92 °C	CC#CCOc1ccc(S(=O)(=O)NC(C(=O)NO)c2ccc(OCCN(C)C(=O)OC(C)(C)C)cc2)cc1 (stereo not shown) [Example 203, tert-Butyl 4-(2-{4-[1-({[4-(2-Butynyloxy)phenyl]sulfonyl}amino)-2-(hydroxyamino)-2-oxoethyl)phenoxy]ethyl)-(methyl)carbamate]	

Molecule	IC50 [1]	IC50 [2]	IC50 [3]	IC50 ([4]; read-out: TACE IC50)	melting point	also measured
CC#CCOc1ccc(S(=O)(=O)N(C)C(C(=O)NO)C(C)(C)SCC)cc1 (stereo not shown) [Example 150, 2-[(4-but-2-ynyloxy-Benenesulfonyl)-methyl-amino]-N-hydroxy-3-methyl-3-ethylsulfanyl-butyramide]	25 nM		9.3 nM	51 nM		THP % Inhibition @ 3 μM ([5]; THP-1 cells): 86%
3-(Benzylthio)-2-[[[4-(2-butynyloxy)phenyl]sulfonyl]methylamino]-N-hydroxypropanamide [Example 156]			4.5 nM	4.8 nM		THP % Inhibition @ 3 μM ([5]; THP-1 cells): 75%
